The values that follow come from ChEMBL document CHEMBL1201862, “PubChem BioAssay data set” (2004).

Among the test systems are 786-0; A549; ACHN; CAKI-1; HCC 2998; HT-29; Hs-578T; IGROV-1; K562; M14; MCF7; Malme-3M; NCI-H23; OVCAR-4; OVCAR-8; SF-295; SN12C; SW-620; T47D.
Test in all cases: NCI tumour cell line growth inhibition, 48 h

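Interpolation was linear, between the two tested concentrations surrounding the appropriate level; five concentrations were tested over 48 hours in 96-well plates. GI50 is the concentration that inhibits growth by half.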 Active and inactive are the calls of the source. Rule as the data show it: active = GI50 up to about 1.1 µM and inactive = higher. Some results are limits rather than exact numbers.

For `COc1cc(C(=O)O[C@@H]2[C@@H](OC(=O)c3cc(OC)c(OC)c(OC)c3)[C@@H](OC)O[C@@H]3CO[C@@H](c4ccccc4)O[C@@H]23)cc(OC)c1OC`, the GI50 with 786-0, with A549, in the assay on ACHN, with CAKI-1, with HCC 2998 and with HT-29 was > 100 µM (inactive) in each case. The GI50 in the assay with Hs-578T, with IGROV-1, in the assay on K562, in the assay with M14, in the assay on MCF7 and with Malme-3M was > 100 µM (inactive) in each case. Besides, the GI50 with NCI-H23, in the assay on OVCAR-4, with OVCAR-8, in the assay with SF-295, with SN12C and in the assay on SW-620 was > 100 µM (inactive) in each case. In addition, the GI50 with T47D is > 100 µM (inactive).

For the compound `O=CC(O)C(O)C1OC(=O)c2cc(O)c(O)c(O)c2C2=C(O)C(O)=C3OC(=O)c4c(c(O)c(O)c5c4C3C2C(=O)O5)-c2c(cc(O)c(O)c2O)C(=O)OCC1O` (stereo not given), the GI50 is 16.3 µM (inactive) in the assay on 786-0; 24.5 µM (inactive) with A549; 44.2 µM (inactive) with ACHN; 18.1 µM (inactive) in the assay on CAKI-1; 24.8 µM (inactive) in the assay with HCC 2998; 15.7 µM (inactive) with HT-29. Besides, the GI50 in the assay on Hs-578T was 67.1 µM (inactive); in the assay on IGROV-1, 51.6 µM (inactive); with K562, 20.7 µM (inactive); in the assay with M14, 22.4 µM (inactive); in the assay with MCF7 it was 17.2 µM (inactive); in the assay with Malme-3M, 81.8 µM (inactive). Also, the GI50 in the assay on NCI-H23 was 78 µM (inactive); in the assay on OVCAR-4, 16.7 µM (inactive); in the assay with OVCAR-8, 20.1 µM (inactive); in the assay on SF-295 it was 26.4 µM (inactive); in the assay with SN12C, 15.2 µM (inactive); in the assay with SW-620 it was 16.9 µM (inactive). Besides, the GI50 in the assay with T47D was 37.5 µM (inactive).

With `CC1C(c2ccc3c(c2)OCO3)c2cc3c(cc2OC1N1CCOCC1)OCO3` (stereo not given), the GI50 is 31.6 µM (inactive) with 786-0; 26.6 µM (inactive) in the assay with A549; 32.6 µM (inactive) with ACHN; 15.2 µM (inactive) with CAKI-1; 18.2 µM (inactive) with HCC 2998; 28.7 µM (inactive) in the assay on HT-29. The GI50 in the assay with Hs-578T was 14.1 µM (inactive); in the assay on IGROV-1 it was 28 µM (inactive); in the assay on K562 it was 7.41 µM (inactive); in the assay with M14 it was 24.7 µM (inactive); in the assay on MCF7, 20.8 µM (inactive); in the assay on Malme-3M, 28.8 µM (inactive). The GI50 in the assay with NCI-H23 was 26.5 µM (inactive); in the assay on OVCAR-4 it was 28.8 µM (inactive); in the assay on OVCAR-8, 32.5 µM (inactive); with SF-295, 24 µM (inactive); in the assay with SN12C it was 33.1 µM (inactive); in the assay with SW-620, 25.9 µM (inactive). Further, the GI50 in the assay on T47D was 13.6 µM (inactive).

Take `COc1ccc(OC)c(C#Cc2ccc(OC)c(C(=O)NCCc3ccc(F)cc3)c2)c1`: the GI50 is > 100 µM (inactive) in the assay with 786-0; 7.55 µM (inactive) with A549; > 100 µM (inactive) in the assay with ACHN; > 100 µM (inactive) in the assay on CAKI-1; 2.27 µM (inactive) in the assay on HCC 2998; 3.17 µM (inactive) in the assay with HT-29. The GI50 in the assay on Hs-578T was > 100 µM (inactive); with IGROV-1, 3.53 µM (inactive); in the assay with K562, 2.39 µM (inactive); in the assay on M14, 5.53 µM (inactive); in the assay with MCF7, 6.5 µM (inactive); with NCI-H23, > 100 µM (inactive). The GI50 is 6.32 µM (inactive) with OVCAR-4; > 100 µM (inactive) with OVCAR-8; 4.67 µM (inactive) with SF-295; 4.02 µM (inactive) in the assay on SW-620; 2.86 µM (inactive) in the assay with T47D.

Consider `O=[N+]([O-])C(C(Cl)=C(Cl)Cl)=C(n1cncn1)n1cncn1`, for which the GI50 is 18.6 µM (inactive) in the assay on 786-0; > 22.1 µM (inactive) in the assay with A549; 19.3 µM (inactive) with ACHN; 5.47 µM (inactive) in the assay with CAKI-1; > 58.3 µM (inactive) in the assay on HCC 2998; 19 µM (inactive) with HT-29. In addition, the GI50 in the assay with Hs-578T is 27 µM (inactive); with IGROV-1 it was 16.6 µM (inactive); in the assay on M14, 31.4 µM (inactive); with MCF7 it was 25.6 µM (inactive); in the assay on Malme-3M, 16.4 µM (inactive); in the assay on NCI-H23, 25.6 µM (inactive). For the same compound, the GI50 with OVCAR-4 is 24.4 µM (inactive); with OVCAR-8, 19.2 µM (inactive); in the assay on SF-295, > 86.7 µM (inactive); in the assay with SN12C it was 12.4 µM (inactive); in the assay on SW-620, 18.8 µM (inactive); in the assay on T47D, 19 µM (inactive).

Regarding `CCCCCC(=O)CCCCCCCC(O)CC(=O)OCC` (stereo not given), the GI50 in the assay with 786-0, in the assay with A549, in the assay on ACHN, in the assay with CAKI-1, in the assay on HCC 2998 and in the assay with HT-29 was > 100 µM (inactive) in each case. Besides, the GI50 in the assay with Hs-578T, in the assay with IGROV-1, in the assay with K562, in the assay on M14, with MCF7 and in the assay on Malme-3M was > 100 µM (inactive) each time. The GI50 with NCI-H23 is > 100 µM (inactive); in the assay on OVCAR-8 it was > 100 µM (inactive); with SF-295, > 10 µM (inactive); in the assay on SN12C it was > 100 µM (inactive); in the assay on SW-620 it was > 100 µM (inactive); in the assay with T47D it was > 100 µM (inactive).

As for `COc1ccc(OC2OC(COC(c3ccccc3)(c3ccc(OC)cc3)c3ccc(OC)cc3)C(O)C(O)C2O)cc1` (stereo not given), the GI50 is 2.32 µM (inactive) in the assay on 786-0; 2.99 µM (inactive) in the assay on A549; 4 µM (inactive) in the assay on ACHN; 4.75 µM (inactive) in the assay on CAKI-1; 3.44 µM (inactive) with HCC 2998; 2.4 µM (inactive) with HT-29. The GI50 in the assay on Hs-578T is 3.96 µM (inactive); in the assay with IGROV-1 it was 5.93 µM (inactive); in the assay with K562, 2.84 µM (inactive); in the assay on M14 it was 2.84 µM (inactive); in the assay with MCF7, 3.75 µM (inactive); with Malme-3M, 2.77 µM (inactive). Besides, the GI50 was 3.66 µM (inactive) in the assay with NCI-H23; 5.24 µM (inactive) in the assay with OVCAR-8; 4.28 µM (inactive) in the assay on SF-295; 2.51 µM (inactive) in the assay with SN12C; 3.77 µM (inactive) in the assay on SW-620; 6.76 µM (inactive) in the assay with T47D.

Regarding `COc1cc(OC)cc(N(C)Cc2cnc3nc(N)nc(N)c3c2C)c1`, the GI50 is 0.427 µM (active) in the assay with 786-0; 0.421 µM (active) with A549; 0.746 µM (active) with ACHN; 2.04 µM (inactive) in the assay with CAKI-1; 3.52 µM (inactive) in the assay with HCC 2998; 2.65 µM (inactive) in the assay with HT-29. In addition, the GI50 with Hs-578T was > 68.5 µM (inactive); in the assay on IGROV-1, 0.838 µM (active); with M14, 0.652 µM (active); in the assay on MCF7, 0.92 µM (active); with Malme-3M it was 0.817 µM (active); in the assay on NCI-H23, 1.25 µM (inactive). Moreover, the GI50 in the assay on OVCAR-4 was 20.1 µM (inactive); in the assay on OVCAR-8, 0.741 µM (active); in the assay on SF-295 it was 0.535 µM (active); with SN12C, 0.929 µM (active); in the assay on SW-620, 0.585 µM (active); in the assay with T47D, 38.3 µM (inactive).

On to `CC(NS(C)(=O)=O)c1ccccc1` (stereo not given), for which the GI50 in the assay on 786-0, in the assay with A549, in the assay with CAKI-1, in the assay on HCC 2998, in the assay with HT-29 and in the assay on Hs-578T was > 100 µM (inactive) in each case. The GI50 in the assay on IGROV-1, in the assay with K562, with M14, with MCF7, in the assay on Malme-3M and in the assay on NCI-H23 was > 100 µM (inactive) throughout. Further, the GI50 in the assay with OVCAR-4, with OVCAR-8, with SF-295, in the assay on SN12C, in the assay on SW-620 and in the assay on T47D was > 100 µM (inactive) in each case.

As for `NCCCCNCCCN1CCOC1=O`, the GI50 in the assay on 786-0, with A549, in the assay with ACHN, with CAKI-1, with HCC 2998 and in the assay on HT-29 was > 100 µM (inactive) throughout. Further, the GI50 in the assay with Hs-578T, in the assay with IGROV-1, in the assay with K562, in the assay on M14, in the assay on MCF7 and in the assay on Malme-3M was > 100 µM (inactive) throughout. For the same compound, the GI50 with NCI-H23, in the assay with OVCAR-8, in the assay on SF-295, in the assay with SN12C, in the assay with SW-620 and in the assay with T47D was > 100 µM (inactive) in each case.

With `CSc1cc(Cl)c(C)cc1S(=O)(=O)NC(=O)NNc1ccc(F)c(Cl)c1`, the GI50 in the assay with 786-0, in the assay on A549, in the assay on ACHN, in the assay on CAKI-1, in the assay with HCC 2998 and with HT-29 was > 100 µM (inactive) each time. Further, the GI50 in the assay with Hs-578T, in the assay on IGROV-1, with K562, in the assay with M14, in the assay on MCF7 and with Malme-3M was > 100 µM (inactive) each time. The GI50 in the assay with OVCAR-4, with OVCAR-8, with SF-295, in the assay with SN12C, with SW-620 and in the assay with T47D was > 100 µM (inactive) throughout.
